Measured values as given in patent publication US8383657B2, “Thiazolylidine urea and amide derivatives and methods of use thereof” (Abbott Laboratories, priority 2007, dated 2013).

Legend:
Format in all cases: cell-based
α7 NNRs [1] = molecular target: T1, α7 NNRs (Homo sapiens, UniProt P36544); assay: High-throughput calcium flux (FLIPR) assay using IMR-32 cells expressing endogenous α7 NNRs; set-up: Emax: dose or concentration left out as unconfirmed
T1 construct: using cells natively expressing α7 NNRs; host or cells: IMR-32 neuroblastoma cells
Procedure: (ii) High-Throughput Calcium Flux Assays Using Cells Expressing Endogenous α7 NNRs
IMR-32 neuroblastoma cells (ATCC) were grown to confluency in 162 cm^2 tissue culture flasks in minimum essential media supplemented with 10% FBS and 1 mM sodium pyruvate, 0.1 mM non-essential amino acids and 1% antibiotic-antimycotic. The cells were then dissociated using cell dissociation buffer and 40 μl of 3.5×10^5 cells/ml cell suspension was plated (about 15,000 cells/well) into black plates with clear bottom and maintained for 48 hours in a tissue culture incubator at 37° C. under an atmosphere of 5% CO2: 95% air. […] Calcium flux was measured using calcium-3 assay kit (Molecular Devices, Sunnyvale, Calif.) or fluo-4. A stock solution of the dye was prepared by dissolving each vial supplied by the vendor in Hank's balanced salt solution buffer (HBSS) containing 20 mM HEPES. The stock solution was diluted 1:20 using the same buffer before use. After removing the growth media, the cells were loaded with 45 μl of the dye and incubated at room temperature for three hours. Fluorescence measurements were read simultaneously from all the wells by a Fluorometric Imaging Plate Reader (FLIPR) at an excitation wavelength of 480 nm and an emission wavelength of 520 nm. Baseline fluorescence was measured for the first 10 seconds at which 5× concentrations of modulator/test compounds were added to the cell plate and incubated for three minutes. The fluorescence intensity was captured every second for the first 1 minute followed by every 5 seconds for an additional 2 minutes. This procedure was followed by 20 μl of 4× concentration of agonist and readings were taken for a period of three minutes as described above. […] The concentration dependence of changes fluorescence responses was fitted by nonlinear regression analysis (GraphPad Prism, San Diego, Calif.) to obtain EC50 values.
PAMs were identified by measuring fluorescence changes to intracellular calcium in a fluorometric plate reader in the presence of selective α7 NNR agonists using cells natively expressing α7 NNRs. […]

human α7 NNR = molecular target: T2, human α7 NNR (Homo sapiens, UniProt P36544); assay: Two-electrode voltage-clamp in Xenopus laevis oocytes: potentiation of ACh-evoked α7 currents; conditions: FIG. 1A
T2 construct: expressed in transfected cells; host or cells: Xenopus laevis oocytes injected with cRNA
Procedure: (i) Two-Electrode Voltage-Clamp in Xenopus laevis Oocytes.
X. laevis oocytes were prepared for electrophysiological experiments as described in the literature (see for example, Briggs, C. A., Mckenna, D. G., and Piattina-kaplan, M., Human α7 nicotinic acetylcholine receptor responses to novel ligands, Neuropharmacology, 1995, 34: 583-590; Briggs, C. A., and Mckenna, D. G., Activation and inhibition of the human α7 nicotinic acetylcholine receptor by agonists, Neuropharmacology, 1998, 37: 1095-1102). […] Responses were measured by two-electrode voltage clamp using parallel oocyte electrophysiology test station (Abbott, Abbott Park, Ill.) (see for example, Trumbull, J. D., Maslana, E. S., McKenna, D. G., Nemcek, T. A., Niforatos, W., Pan, J. Y., Parihar, A. S., Shieh, C. C., Wilkins, J. A., Briggs, C. A., and Bertrand, D., High throughput electrophysiology using a fully automated, multiplexed recording system, Receptors Channels, 2003, 9: 19-28). […] The data were expressed as percentage potentiation over the response to 0.1 mM ACh alone. […]

α7 NNRs [2] = molecular target: T3, α7 NNRs (Rattus norvegicus, UniProt Q05941); assay: High-throughput ERK phosphorylation assay (in-cell western) using PC-12 cells expressing endogenous α7 NNRs
T3 construct: host or cells: PC-12 rat pheochromocytoma cells
Procedure: (iii) High-Throughput ERK Phosphorylation Assays Using Cells Expressing Endogenous α7 NNRs
Rat pheochromocytoma (PC-12) cells (ATCC, Manassas, Va.) were cultured and maintained in F-12K media supplemented with 15% horse serum, 2.5% fetal calf serum, and 2 mM L-glutamine in poly-D lysine coated dishes at 37° C. and 5% CO2. Cells were plated in black-walled clear bottom 96-well Biocoat™ plates coated with poly-D-lysine (BD Biosciences, Bedford, Mass.) and grown for 2-3 days. Afterward, the culture media is replaced with serum-free media to starve cells overnight. On the day of the assay, cell media was removed and cells (60-80% confluent) were treated with agonist and/or modulator in Dulbecco's phosphate buffer saline (D-PBS) (with Ca^2+, Mg^2+, and 1 mg/ml D-glucose), as indicated in the result section.
PC-12 cells are treated for 10 minutes at 37° C. with test PAM compounds and then challenged with a selective α7 agonist for 5 minutes at 37° C. in a final volume of 100 μl/well, unless otherwise indicated. After treatment, media was discarded and adherent cells were immediately fixed in the presence of 150 μl/well of 3.7% formaldehyde/phosphate-buffered saline for 30-60 minutes at room temperature. […] Well intensities were quantitated and phospho-ERK signals were normalized to total ERK signals by the Odyssey software. […]

T1 sequence (P36544 23-502): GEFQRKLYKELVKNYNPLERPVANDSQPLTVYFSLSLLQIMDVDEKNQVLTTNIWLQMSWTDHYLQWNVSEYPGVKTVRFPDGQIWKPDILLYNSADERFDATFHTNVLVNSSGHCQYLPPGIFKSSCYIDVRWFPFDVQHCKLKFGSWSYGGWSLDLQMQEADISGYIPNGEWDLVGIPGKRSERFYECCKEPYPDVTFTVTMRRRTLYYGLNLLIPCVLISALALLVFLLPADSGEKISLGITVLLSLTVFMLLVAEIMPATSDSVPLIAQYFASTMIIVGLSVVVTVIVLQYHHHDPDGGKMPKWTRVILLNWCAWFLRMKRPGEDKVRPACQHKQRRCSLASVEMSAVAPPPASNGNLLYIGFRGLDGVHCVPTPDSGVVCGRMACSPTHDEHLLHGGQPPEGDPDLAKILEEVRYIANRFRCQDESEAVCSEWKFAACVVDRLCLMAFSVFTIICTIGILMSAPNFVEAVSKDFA
T2 sequence (P36544 23-502): as above
T3 sequence (Q05941 23-502): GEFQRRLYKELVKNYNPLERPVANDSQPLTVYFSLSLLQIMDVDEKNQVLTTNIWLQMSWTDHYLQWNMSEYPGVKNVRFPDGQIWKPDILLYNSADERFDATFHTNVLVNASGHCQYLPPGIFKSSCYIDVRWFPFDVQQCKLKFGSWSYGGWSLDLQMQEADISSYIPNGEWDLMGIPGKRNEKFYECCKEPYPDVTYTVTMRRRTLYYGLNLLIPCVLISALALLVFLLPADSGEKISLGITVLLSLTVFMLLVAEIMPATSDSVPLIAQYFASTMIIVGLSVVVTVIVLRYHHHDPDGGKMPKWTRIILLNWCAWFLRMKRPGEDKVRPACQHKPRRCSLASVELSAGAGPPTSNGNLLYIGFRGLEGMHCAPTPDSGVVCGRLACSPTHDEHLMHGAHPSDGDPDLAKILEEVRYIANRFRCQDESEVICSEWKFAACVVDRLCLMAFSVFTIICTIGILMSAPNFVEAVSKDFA

## CCN1C[C@]2(COC(=O)c3ccccc3N3C(=O)C[C@H](C)C3=O)CC[C@H](OC)[C@@]34[C@@H]5C[C@H]6[C@H](OC)[C@@H]5[C@](O)(C[C@@H]6OC)[C@@](O)([C@@H](OC)[C@H]23)[C@@H]14 [methyllycaconitine, reference compound]
α7 NNRs [1]; IMR-32 cells, α7 selective antagonist
  effect on calcium response to agonist plus modulator: abolishes response

## Cc1cn(-c2ccc(C(F)(F)F)cc2)/c(=N/C(=O)N2CCCC2)s1 [Example 18, N-[(2Z)-5-methyl-3-[4-(trifluoromethyl)phenyl]-1,3-thiazol-2(3H)-ylidene]pyrrolidine-1-carboxamide]
α7 NNRs [1]; FIG. 1B, IMR-32 cells, agonist 4-(5-phenyl-[1,3,4]oxadiazol-2-yl)-1,4-diaza-bicyclo[3.2.2]nonane at 10 μM, read-out: EC50 value, calcium fluorescence response
  EC50: 3.4 µM
α7 NNRs [1]; IMR-32, read-out: maximal effects, normalized change in fluorescence
  Emax: 110%
Human α7 NNR; 0.1 mM ACh, oocytes injected with human α7 NNR cRNA, read-out: EC50 value, potentiating 0.1 mM ACh-evoked α7 currents in oocytes
  EC50: 4 µM
Human α7 NNR; percentage potentiation over the response to 0.1 mM ACh alone
  degree of potentiation: 300%
α7 NNRs [2]; FIG. 1C, PC-12 cells, α7 selective agonist PNU-282987
  EC50: 1400 nM
α7 NNRs [2]; PC-12, read-out: maximal efficacy
  Emax: 111%
